The first experiment addresses S. pneumoniae Topoisomerase IV ATPase (ParE) (Streptococcus pneumoniae serotype 4, UniProt Q59961). Nature of the experiment: S. pneumoniae Topoisomerase IV ATPase inhibition. The experiment is classed as biochemical. The conditions noted are these: values marked * are an average of two or more data points, 13 µM. Summed up:
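ParE ATPase (1.25 nM) run with 160 μM ATP and 5 μg/ml sheared salmon sperm DNA in Tris pH 8.0, Mg2+, glycerol, DTT, Brij-35. Phosphate released read by malachite green/molybdate absorbance at 650 nm. IC50 from 10 compound concentrations; DMSO (2%) as 0% and EDTA (20 μM) as 100% inhibition.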
S. pneumoniae Topoisomerase IV ATPase (ParE), sequence (Q59961 whole entry): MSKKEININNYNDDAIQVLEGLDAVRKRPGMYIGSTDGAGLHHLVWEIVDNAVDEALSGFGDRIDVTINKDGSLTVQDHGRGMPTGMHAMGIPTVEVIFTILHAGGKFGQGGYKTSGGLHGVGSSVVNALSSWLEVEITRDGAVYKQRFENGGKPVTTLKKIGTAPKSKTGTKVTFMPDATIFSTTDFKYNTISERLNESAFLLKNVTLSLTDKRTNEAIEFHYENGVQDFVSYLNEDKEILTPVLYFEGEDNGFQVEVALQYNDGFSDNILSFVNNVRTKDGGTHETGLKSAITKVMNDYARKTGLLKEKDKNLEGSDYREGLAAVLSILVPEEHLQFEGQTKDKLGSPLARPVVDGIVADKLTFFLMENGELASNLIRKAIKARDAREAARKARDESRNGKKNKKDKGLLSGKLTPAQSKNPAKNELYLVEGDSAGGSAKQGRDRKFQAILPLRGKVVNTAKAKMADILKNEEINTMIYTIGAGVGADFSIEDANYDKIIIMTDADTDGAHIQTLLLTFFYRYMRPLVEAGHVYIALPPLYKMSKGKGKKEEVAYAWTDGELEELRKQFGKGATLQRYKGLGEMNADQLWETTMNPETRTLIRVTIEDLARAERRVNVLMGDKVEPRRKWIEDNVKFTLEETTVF
With `COc1ccc(C(=O)O)cc1-c1cnc(Nc2ccc(F)c(Cl)c2)nc1-n1ccc(C(F)(F)F)n1` [Example 1128, 3-(2-(3-chloro-4-fluorophenylamino)-4-(3-(trifluoromethyl)-1H-pyrazol-1-yl)pyrimidin-5-yl)-4-methoxybenzoic acid], the “% Inh (13 μM) of S. pneumoniae Topoisomerase IV ATPase” value was 67%.

Still in this experiment, the particulars now being: values marked * are an average of two or more data points, read-out: % Inh (13 μM) of S. pneumoniae Topoisomerase IV ATPase.
`COCC(COC)Oc1ncc(-c2cnc(Nc3ccc(F)c(Cl)c3)nc2-n2nc(C(F)(F)F)cc2C)cc1C(=O)O` [Example 870, 5-(2-(3-chloro-4-fluorophenylamino)-4-(5-methyl-3-(trifluoromethyl)-1H-pyrazol-1-yl)pyrimidin-5-yl)-2-(1,3-dimethoxypropan-2-yloxy)nicotinic acid]: the inhibition at 13 µM turned out to be 100%.
As to `COc1cc(Nc2ncc(-c3cnc(-n4cncn4)c(C(=O)O)c3)c(-n3ccc(C(F)(F)F)n3)n2)cc(OC)c1` [Example 588, 5-(2-(3,5-dimethoxyphenylamino)-4-(3-(trifluoromethyl)-1H-pyrazol-1-yl)pyrimidin-5-yl)-2-(1H-1,2,4-triazol-1-yl)nicotinic acid], the inhibition at 13 µM was found to be 100%.
For `COc1cc(Nc2ncc(-c3cnc(OCCS(C)(=O)=O)c(C(=O)O)c3)c(-n3nc(C(F)(F)F)cc3C)n2)cc(OC)c1` [Example 965, 5-(2-(3,5-dimethoxyphenylamino)-4-(5-methyl-3-(trifluoromethyl)-1H-pyrazol-1-yl)pyrimidin-5-yl)-2-(2-(methylsulfonyl)ethoxy)nicotinic acid], the inhibition at 13 µM came to 100%.
Turning to `Cn1cncc1CNc1nc(Nc2ccc(F)c(Cl)c2)ncc1-c1cncc(C(=O)O)c1` [Example 281, 5-(2-(3-chloro-4-fluorophenylamino)-4-((1-methyl-1H-imidazol-5-yl)methylamino)pyrimidin-5-yl)nicotinic acid], the inhibition at 13 µM was 95.8%.
Same read-out and setting: as for `CNC(=O)c1cc(-c2cnc(Nc3ccc(F)c(Cl)c3)nc2-n2ccc(C(F)(F)F)n2)cnc1OC` [Example 1100, 5-(2-(3-chloro-4-fluorophenylamino)-4-(3-(trifluoromethyl)-1H-pyrazol-1-yl)pyrimidin-5-yl)-2-methoxy-N-methylnicotinamide], the figure is 75%; as for `COCCn1cc(C(=O)O)c(=O)c2cc(-c3cnc(Nc4ccc(F)c(Cl)c4)nc3NCCCN(C)C)ccc21` [Example 1057, 6-(2-(3-Chloro-4-fluorophenylamino)-4-(3-(dimethylamino)propylamino)pyrimidin-5-yl)-1-(2-methoxyethyl)-4-oxo-1,4-dihydroquinoline-3-carboxylic acid], 83%.
The same measure, in the same setting: with `CN(C)CCCNc1nc(Nc2ccc(F)c(Cl)c2)ncc1-c1cnc(N)nc1` [Example 19, N^2-(3-chloro-4-fluorophenyl)-N^4-[3-(dimethylamino)propyl]-5,5′-bipyrimidin-2,2′,4-triamine] the figure was 95.8%; with `COCCn1cc(-c2cnc(Nc3cc(OC)cc(OC)c3)nc2-n2ccc(C(F)(F)F)n2)cc(C(=O)NS(C)(=O)=O)c1=O` [Example 1163, 5-(2-(3,5-dimethoxyphenylamino)-4-(3-(trifluoromethyl)-1H-pyrazol-1-yl)pyrimidin-5-yl)-1-(2-methoxyethyl)-N-(methylsulfonyl)-2-oxo-1,2-dihydropyridine-3-carboxamide], 100%.
As to `COc1ncc(-c2cnc(Nc3cc(C)cc(Cl)c3)nc2-n2nc(C(F)(F)F)cc2C)cc1C(=O)O` [Example 802, 5-{2-[(3-chloro-5-methylphenyl)amino]-4-[5-methyl-3-(trifluoromethyl)-1H-pyrazol-1-yl]pyrimidin-5-yl}-2-methoxypyridine-3-carboxylic acid], the inhibition at 13 µM worked out at 100%.
The same measure, in the same setting: as for `Cc1cc(C(F)(F)F)nn1-c1nc(Nc2ccc(F)c(Cl)c2)ncc1-c1cncc(C(=O)NCCS(C)(=O)=O)c1` [Example 926, 5-(2-(3-chloro-4-fluorophenylamino)-4-(5-methyl-3-(trifluoromethyl)-1H-pyrazol-1-yl)pyrimidin-5-yl)-N-(2-(methylsulfonyl)ethyl)nicotinamide], the figure is 100%.
The same measure, in the same setting: as for `CCS(=O)(=O)NC(=O)c1cc(-c2cnc(Nc3cc(OC)cc(OC)c3)nc2-n2ccc(C(F)(F)F)n2)cnc1OC` [Example 814, 5-{2-[(3,5-dimethoxyphenyl)amino]-4-[3-(trifluoromethyl)-1H-pyrazol-1-yl]pyrimidin-5-yl}-N-(ethylsulfonyl)-2-methoxypyridine-3-carboxamide], the figure is 100%.
On the same count and under the same terms, with `Fc1ccc(Nc2ncc(-c3cncnc3)c(N3CCC(F)CC3)n2)cc1Cl` [Example 64, N-(3-chloro-4-fluorophenyl)-4-(4-fluoropiperidin-1-yl)-5-pyrimidin-5-ylpyrimidin-2-amine] the figure was 65.4%; with `O=C(O)c1cc2ccc(-c3cnc(Nc4ccc(F)c(Cl)c4)nc3N3CCOCC3)cc2[nH]1` [Example 1063, 6-(2-(3-Chloro-4-fluorophenylamino)-4-morpholinopyrimidin-5-yl)-1H-indole-2-carboxylic acid], 94%; with `N#Cc1cccc(Nc2ncc(-c3cccc(/C=C/C(=O)O)c3)c(-n3ccc(C(F)(F)F)n3)n2)c1` [Example 692, (2E)-3-(3-{2-[(3-cyanophenyl)amino]-4-[3-(trifluoromethyl)-1H-pyrazol-1-yl]pyrimidin-5-yl}phenyl)prop-2-enoic acid], 97%.
`CS(=O)(=O)c1cncc(-c2cnc(Nc3ccc(F)c(Cl)c3)nc2N2CCOCC2)c1` [Example 988, N-(3-chloro-4-fluorophenyl)-5-(5-(methylsulfonyl)pyridin-3-yl)-4-morpholinopyrimidin-22-amine]: the inhibition at 13 µM was determined as 69%.
On the same count and under the same terms, with `O=C(O)COc1cccc(-c2cnc(Nc3ccc(F)c(Cl)c3)nc2N2CCOCC2)c1` [Example 488, (3-{2-[(3-chloro-4-fluorophenyl)amino]-4-(morpholin-4-yl)pyrimidin-5-yl}phenoxy)acetic acid] the figure was 92%; with `O=C(O)c1cncc(-c2cnc(Nc3ccc(F)c(Br)c3)nc2N2CCOCC2)c1` [Example 443], 85%.
Still for that read-out and setting: as for `COc1nc(OC)c(-c2cnc(Nc3ccc(F)c(Cl)c3)nc2-n2ccc(C(F)(F)F)n2)cc1C(=O)O` [Example 1132, 5-(2-(3-chloro-4-fluorophenylamino)-4-(3-(trifluoromethyl)-1H-pyrazol-1-yl)pyrimidin-5-yl)-2,6-dimethoxynicotinic acid], the figure is 100%; as for `Cc1cc(C)cc(Nc2ncc(-c3cc(C(=O)O)cnc3OCCN(C)C)c(-n3nc(C(F)(F)F)cc3C)n2)c1` [Example 1145, 6-(2-(dimethylamino)ethoxy)-5-(2-(3,5-dimethylphenylamino)-4-(5-methyl-3-(trifluoromethyl)-1H-pyrazol-1-yl)pyrimidin-5-yl)nicotinic acid], 100%.
The same measure, in the same setting: as for `CCOC(=O)c1cncc(-c2cnc(Nc3ccc(F)c(Cl)c3)nc2NCCC(N)=O)c1` [Example 99, 5-[4-(2-Carbamoyl-ethylamino)-2-(3-chloro-4-fluoro-phenylamino)-pyrimidin-5-yl]-nicotinic acid ethyl ester], the figure is 82%; as for `O=C(O)/C=C/c1cccc(-c2cnc(Nc3ccc4c(c3)OCO4)nc2-n2ccc(C(F)(F)F)n2)c1` [Example 657, (2E)-3-(3-{2-(1,3-benzodioxol-5-ylamino)-4-[3-(trifluoromethyl)-1H-pyrazol-1-yl]pyrimidin-5-yl}phenyl)prop-2-enoic acid], 100%.

These data come from patent publication US20100137313A1 (ASTRAZENECA AB, priority 2008, published 2010).
